Laboratory results as given in patent publication US6750239B2, “Pyrazole-derived kinase inhibitors and uses thereof” (Vertex Pharmaceuticals Incorporated, priority 2001, dated 2004).

Molecular target: activated ERK2 (Homo sapiens, UniProt P28482)
Test: ERK2 inhibition spectrophotometric coupled-enzyme assay
Format: biochemical
Conditions: not given
Description: Compounds are assayed for the inhibition of ERK2 by a spectrophotometric coupled-enzyme assay (Fox et al (1998) Protein Sci 7, 2249). In this assay, a fixed concentration of activated ERK2 (10 nM) is incubated with various concentrations of the compound in DMSO (2.5%) for 10 min. at 30° C. in 0.1 M HEPES buffer, pH 7.5, containing 10 mM MgCl2, 2.5 mM phosphoenolpyruvate, 200 μM NADH, 150 μg/mL pyruvate kinase, 50 μg/mL lactate dehydrogenase, and 200 μM erktide peptide. The reaction is initiated by the addition of 65 μM ATP. The rate of decrease of absorbance at 340 nm is monitored, which indicates the extent of uninhibited enzyme present in the assay. The IC50 is evaluated from the rate data as a function of inhibitor concentration.
The compound numbers correspond to the compound numbers in Tables 1-3.

activated ERK2, sequence (P28482 whole entry): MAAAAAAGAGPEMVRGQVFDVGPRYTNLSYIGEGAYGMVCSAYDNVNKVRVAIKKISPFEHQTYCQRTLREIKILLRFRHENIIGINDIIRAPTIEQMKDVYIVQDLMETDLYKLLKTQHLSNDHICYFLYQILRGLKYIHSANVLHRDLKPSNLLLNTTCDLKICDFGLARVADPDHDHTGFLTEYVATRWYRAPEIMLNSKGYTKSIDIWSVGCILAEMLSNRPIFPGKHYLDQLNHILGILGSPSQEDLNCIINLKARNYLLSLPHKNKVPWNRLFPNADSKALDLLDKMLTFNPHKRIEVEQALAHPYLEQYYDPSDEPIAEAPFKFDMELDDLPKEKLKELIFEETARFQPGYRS

Compound | Ki [µM]
O=C(N[C@H](CO)c1ccc(F)c(Cl)c1)c1cc(-c2[nH]ncc2-c2ccc(CN(CCCl)CCCl)c(Cl)c2)c[nH]1 [II-36] | < 1
O=C(N[C@H](CO)c1ccc(F)c(Cl)c1)c1cc(-c2[nH]ncc2-c2ccc(CNCCCl)c(Cl)c2)c[nH]1 [II-35] | < 1

Same assay, conditions: activated ERK2 10 nM, 65 μM ATP, 30° C., pH 7.5; read-out: ERK2 Inhibitory Activity (Ki class)

Compound | Ki [µM]
CCN(CC)C(=O)CN(CC(=O)N(CC)CC)Cc1ccc(-c2cn[nH]c2-c2c[nH]c(C(=O)N[C@H](CO)c3ccc(F)c(Cl)c3)c2)cc1Cl [II-86] | < 1
N[C@@H](CO)C(=O)NCc1ccc(-c2cn[nH]c2-c2c[nH]c(C(=O)N[C@H](CO)c3ccc(F)c(Cl)c3)c2)cc1Cl [II-75] | < 1
O=C(CCCO)NCc1ccc(-c2c[nH]nc2-c2c[nH]c(C(=O)NC(CO)c3ccc(F)c(Cl)c3)c2)cc1Cl (stereo not drawn) [II-8, 4-(4-{3-Chloro-4-[(4-hydroxy-butyrylamino)-methyl]-phenyl}-1H-pyrazol-3-yl)-1H-pyrrole-2-carboxylic acid [1-(3-chloro-4-fluoro-phenyl)-2-hydroxy-ethyl]-amide] | < 1
CC(=O)N[C@@H](C)C(=O)NCc1ccc(-c2cn[nH]c2-c2c[nH]c(C(=O)NC(CO)c3ccc(F)c(Cl)c3)c2)cc1Cl (stereo partly drawn) [II-10] | < 1
NCCNCc1ccc(-c2cn[nH]c2-c2c[nH]c(C(=O)N[C@H](CO)c3ccc(F)c(Cl)c3)c2)cc1Cl [II-68] | < 1
CC(=O)NC(CO)C(=O)NCc1ccc(-c2c[nH]nc2-c2c[nH]c(C(=O)N[C@H](CO)c3ccc(F)c(Cl)c3)c2)cc1Cl (stereo in doubt) [II-20, 4-(4-{4-[(2-Acetylamino-3-hydroxy-propionylamino)-methyl]-3-chloro-phenyl}-1H-pyrazol-3-yl)-1H-pyrrole-2-carboxylic acid [1-(3-chloro-4-fluoro-phenyl)-2-hydroxy-ethyl]-amide] | < 1
CN(C)CCNCc1ccc(-c2cn[nH]c2-c2c[nH]c(C(=O)N[C@H](CO)c3ccc(F)c(Cl)c3)c2)cc1Cl [II-79] | < 1
CN[C@@H](CO)C(=O)NCc1ccc(-c2cn[nH]c2-c2c[nH]c(C(=O)N[C@H](CO)c3ccc(F)c(Cl)c3)c2)cc1Cl [II-67] | < 1
CC(C(=O)N(C)C)N(C)Cc1ccc(-c2cn[nH]c2-c2c[nH]c(C(=O)N[C@H](CO)c3ccc(F)c(Cl)c3)c2)cc1C(F)(F)F (stereo partly drawn) [II-61] | < 1
CCOC(=O)CC(C)NCc1ccc(-c2cn[nH]c2-c2c[nH]c(C(=O)N[C@H](CO)c3ccc(F)c(Cl)c3)c2)cc1Cl (stereo partly drawn) [II-72] | < 1
CCC(=O)CNCc1ccc(-c2cn[nH]c2-c2c[nH]c(C(=O)N[C@H](CO)c3ccc(F)c(Cl)c3)c2)cc1Cl [II-53] | < 1
NC(=O)CNCc1ccc(-c2cn[nH]c2-c2c[nH]c(C(=O)N[C@H](CO)c3ccc(F)c(Cl)c3)c2)cc1Cl [II-76] | < 1
CC(O)CNCc1ccc(-c2cn[nH]c2-c2c[nH]c(C(=O)N[C@H](CO)c3ccc(F)c(Cl)c3)c2)cc1Cl (stereo partly drawn) [II-31] | < 1
CNC(=O)C(C)NCc1ccc(-c2cn[nH]c2-c2c[nH]c(C(=O)N[C@H](CO)c3ccc(F)c(Cl)c3)c2)cc1C(F)(F)F (stereo partly drawn) [II-65] | < 1
C[S+]([O-])CC(=O)NCc1ccc(-c2cn[nH]c2-c2c[nH]c(C(=O)NC(CO)c3ccc(F)c(Cl)c3)c2)cc1Cl (stereo not drawn) [II-6] | < 1
CCOC(=O)C(C)N(C)Cc1ccc(-c2cn[nH]c2-c2c[nH]c(C(=O)N[C@H](CO)c3ccc(F)c(Cl)c3)c2)cc1Cl (stereo partly drawn) [II-63] | < 1
O=C(N[C@H](CO)c1ccc(F)c(Cl)c1)c1cc(-c2[nH]ncc2-c2ccc(CNCCO)c(Cl)c2)c[nH]1 [II-30] | < 1
CCCCN(CCCC)Cc1ccc(-c2cn[nH]c2-c2c[nH]c(C(=O)N[C@H](CO)c3ccc(F)c(Cl)c3)c2)cc1Cl [II-23] | < 1
CCN(CC)CCNCc1ccc(-c2cn[nH]c2-c2c[nH]c(C(=O)N[C@H](CO)c3ccc(F)c(Cl)c3)c2)cc1Cl [II-82] | < 1

Compound | Ki [µM]
CCC(=O)CN(CC(=O)CC)Cc1ccc(-c2cn[nH]c2-c2c[nH]c(C(=O)N[C@H](CO)c3ccc(F)c(Cl)c3)c2)cc1Cl [II-73] | < 1
CCOC(=O)CN(C)Cc1ccc(-c2cn[nH]c2-c2c[nH]c(C(=O)N[C@H](CO)c3ccc(F)c(Cl)c3)c2)cc1Cl [II-83] | < 1
CC(C)(C)OC(=O)N[C@H](CO)C(=O)NCc1ccc(-c2cn[nH]c2-c2c[nH]c(C(=O)NC(CO)c3ccc(F)c(Cl)c3)c2)cc1Cl (stereo partly drawn) [II-17] | < 1
CC(=O)NC(CO)C(=O)NCc1ccc(-c2cn[nH]c2-c2c[nH]c(C(=O)N[C@H](CO)c3cccc(Cl)c3)c2)cc1Cl (stereo partly drawn) [II-19] | < 1
CCOC(=O)NCc1ccc(-c2cn[nH]c2-c2c[nH]c(C(=O)N[C@H](CO)c3ccc(F)c(Cl)c3)c2)cc1Cl [II-78] | < 1
CCN(CC)CC(=O)NCc1ccc(-c2cn[nH]c2-c2c[nH]c(C(=O)N[C@H](CO)c3ccc(F)c(Cl)c3)c2)cc1Cl [II-38] | < 1
4-{4-[3-Chloro-4-(methanesulfonylamino-methyl)-phenyl]-1H-pyrazol-3-yl}-1H-pyrrole-2-carboxylic acid [1-(3-chloro-4-fluoro-phenyl)-2-hydroxy-ethyl]-amide [II-2] | < 1
CC(=O)N[C@H](C)C(=O)NCc1ccc(-c2cn[nH]c2-c2c[nH]c(C(=O)NC(CO)c3ccc(F)c(Cl)c3)c2)cc1Cl (stereo partly drawn) [II-11] | < 1
CCOC(=O)CN(CC(=O)OCC)Cc1ccc(-c2cn[nH]c2-c2c[nH]c(C(=O)N[C@H](CO)c3ccc(F)c(Cl)c3)c2)cc1Cl [II-84] | < 1
N[C@@H](CO)C(=O)NCc1ccc(-c2cn[nH]c2-c2c[nH]c(C(=O)NC(CO)c3ccc(F)c(Cl)c3)c2)cc1Cl (stereo partly drawn) [II-15] | < 1
CCOC(=O)C(C)NCc1ccc(-c2cn[nH]c2-c2c[nH]c(C(=O)N[C@H](CO)c3ccc(F)c(Cl)c3)c2)cc1Cl (stereo partly drawn) [II-55] | < 1
CS(=O)(=O)CC(=O)NCc1ccc(-c2cn[nH]c2-c2c[nH]c(C(=O)N[C@H](CO)c3ccccc3)c2)cc1Cl [II-1] | < 1
CCN(CC)Cc1ccc(-c2cn[nH]c2-c2c[nH]c(C(=O)N[C@H](CO)c3ccc(F)c(Cl)c3)c2)cc1Cl [II-34] | < 1
N#CCNCc1ccc(-c2cn[nH]c2-c2c[nH]c(C(=O)N[C@H](CO)c3ccc(F)c(Cl)c3)c2)cc1Cl [II-33] | < 1
CC(C)N(C)Cc1ccc(-c2cn[nH]c2-c2c[nH]c(C(=O)N[C@H](CO)c3ccc(F)c(Cl)c3)c2)cc1Cl [II-54] | < 1
CC(NCc1ccc(-c2cn[nH]c2-c2c[nH]c(C(=O)N[C@H](CO)c3ccc(F)c(Cl)c3)c2)cc1Cl)C(=O)N(C)C (stereo partly drawn) [II-66] | < 1
CCOC(=O)C(C)NCc1ccc(-c2cn[nH]c2-c2c[nH]c(C(=O)N[C@H](CO)c3ccc(F)c(Cl)c3)c2)cc1C(F)(F)F (stereo partly drawn) [II-62] | < 1
C[C@H](N)C(=O)NCc1ccc(-c2cn[nH]c2-c2c[nH]c(C(=O)N[C@H](CO)c3ccc(F)c(Cl)c3)c2)cc1Cl [II-69] | < 1

Results, then the compound that gave them:

Ki [µM] | Compound
< 1 | O=C(O)CNCc1ccc(-c2cn[nH]c2-c2c[nH]c(C(=O)N[C@H](CO)c3ccc(F)c(Cl)c3)c2)cc1Cl [II-81]
< 1 | N[C@H](CO)C(=O)NCc1ccc(-c2cn[nH]c2-c2c[nH]c(C(=O)N[C@H](CO)c3ccc(F)c(Cl)c3)c2)cc1Cl [II-56]
< 1 | NC(=O)CN(CC(N)=O)Cc1ccc(-c2cn[nH]c2-c2c[nH]c(C(=O)N[C@H](CO)c3ccc(F)c(Cl)c3)c2)cc1Cl [II-74]
< 1 | CC(CC(=O)N(C)C)NCc1ccc(-c2cn[nH]c2-c2c[nH]c(C(=O)N[C@H](CO)c3ccc(F)c(Cl)c3)c2)cc1Cl (stereo partly drawn) [II-52]
< 1 | CNC(=O)C(C)N(C)Cc1ccc(-c2cn[nH]c2-c2c[nH]c(C(=O)N[C@H](CO)c3ccc(F)c(Cl)c3)c2)cc1C(F)(F)F (stereo partly drawn) [II-59]
< 1 | CCCN(CCC)Cc1ccc(-c2cn[nH]c2-c2c[nH]c(C(=O)N[C@H](CO)c3ccc(F)c(Cl)c3)c2)cc1Cl [II-28]
< 1 | CCOC(=O)CNCc1ccc(-c2c[nH]nc2-c2c[nH]c(C(=O)N[C@H](CO)c3ccc(F)c(Cl)c3)c2)cc1Cl [II-29]
< 1 | CCN(CC)C(=O)CNCc1ccc(-c2cn[nH]c2-c2c[nH]c(C(=O)N[C@H](CO)c3ccc(F)c(Cl)c3)c2)cc1Cl [II-80]
< 1 | CC(C)NCc1ccc(-c2cn[nH]c2-c2c[nH]c(C(=O)N[C@H](CO)c3ccc(F)c(Cl)c3)c2)cc1C(F)(F)F [II-57]
< 1 | CN(C)CC(=O)NCc1ccc(-c2cn[nH]c2-c2c[nH]c(C(=O)NC(CO)c3ccc(F)c(Cl)c3)c2)cc1Cl (stereo not drawn) [II-13]
< 1 | CCCCNCc1ccc(-c2cn[nH]c2-c2c[nH]c(C(=O)N[C@H](CO)c3ccc(F)c(Cl)c3)c2)cc1Cl [II-22]
< 1 | CC(O)CCNCc1ccc(-c2cn[nH]c2-c2c[nH]c(C(=O)N[C@H](CO)c3ccc(F)c(Cl)c3)c2)cc1Cl (stereo partly drawn) [II-32]
< 1 | CC(C)NCc1ccc(-c2cn[nH]c2-c2c[nH]c(C(=O)N[C@H](CO)c3ccc(F)c(Cl)c3)c2)cc1Cl [II-70]
< 1 | CC(=O)NC(CCO)C(=O)NCc1ccc(-c2cn[nH]c2-c2c[nH]c(C(=O)NC(CO)c3ccc(F)c(Cl)c3)c2)cc1Cl (stereo not drawn) [II-5]
< 1 | N[C@H](CO)C(=O)NCc1ccc(-c2cn[nH]c2-c2c[nH]c(C(=O)NC(CO)c3ccc(F)c(Cl)c3)c2)cc1Cl (stereo partly drawn) [II-18]
< 1 | CC(C)(C)OC(=O)NCCNCc1ccc(-c2cn[nH]c2-c2c[nH]c(C(=O)N[C@H](CO)c3ccc(F)c(Cl)c3)c2)cc1Cl [II-37]
< 1 | C[C@@H](O)[C@H](N)C(=O)NCc1ccc(-c2cn[nH]c2-c2c[nH]c(C(=O)N[C@H](CO)c3ccc(F)c(Cl)c3)c2)cc1Cl [II-77]
< 1 | CCNC(=O)CN(CC(=O)NCC)Cc1ccc(-c2cn[nH]c2-c2c[nH]c(C(=O)N[C@H](CO)c3ccc(F)c(Cl)c3)c2)cc1Cl [II-85]
